Assay results as given in ChEMBL document CHEMBL1135356, “Multidrug resistant cancer cells susceptibility to cytotoxic taxane diterpenes from Taxus yunnanensis and Taxus chinensis” (2002).
Values after ≈ are worked out from the molar mass of the structure shown. Active and inactive are the calls of the source. The rule behind the calls is not given here.

Tests used:
A549 [1] = assay: Cytotoxic activity of compound against A-549 tumor cell line.; type: functional; settings: Homo sapiens, read-out: ED50 (the source's name)
A549 [2] = assay: Cytotoxic activity of compound against A-549 tumor cell line at conc. of 20 ug/mL; type: functional; settings: Homo sapiens
HCT-8 [3] = assay: Cytotoxic activity of compound against HCT-8 tumor cell line; NA denotes not active at conc. of 20 ug/mL.; type: functional, cell-based; settings: Homo sapiens
HOS [4] = assay: Cytotoxic activity of compound against HOS tumor cell line.; type: functional; settings: Homo sapiens, read-out: ED50 (the source's name)
HOS [5] = assay: Cytotoxic activity of compound against HOS tumor cell line at conc. of 20 ug/mL; type: functional; settings: Homo sapiens
[6] = Cytotoxic activity of compound against IA-9 tumor cell line.; type: functional; settings: Homo sapiens; read-out: ED50 (the source's name)
[7] = Cytotoxic activity of compound against IA-9 tumor cell line. at conc. of 20 ug/mL; type: functional; settings: Homo sapiens
[8] = Cytotoxic activity of compound against KB cell lines at conc. of 20 ug/mL; type: functional; settings: Homo sapiens
KB 3-1 [9] = assay: Cytotoxic activity of compound was evaluated against KB-VIN cells expressing (P-glycoprotein).; type: functional; settings: Homo sapiens, KBVIN; read-out: ED50 (the source's name)
KB 3-1 [10] = assay: Cytotoxic activity of compound was evaluated against KB-VIN cells expressing (P-glycoprotein) at conc. of 20 ug/mL; type: functional; settings: Homo sapiens, KBVIN
MCF7 [11] = assay: Cytotoxic activity of compound against MCF-7 tumor cell line.; type: functional; settings: Homo sapiens, read-out: ED50 (the source's name)
MCF7 [12] = assay: Cytotoxic activity of compound against MCF-7 tumor cell line at conc. of 20 ug/mL; type: functional; settings: Homo sapiens
SK-MEL-2 [13] = assay: Cytotoxic activity of compound against SK-MEL-2 tumor cell line.; type: functional; settings: Homo sapiens, read-out: ED50 (the source's name)
SK-MEL-2 [14] = assay: Cytotoxic activity of compound against SK-MEL-2 tumor cell line at conc. of 20 ug/mL; type: functional; settings: Homo sapiens
U-87 MG [15] = assay: Cytotoxic activity of compound against U-87-MG tumor cell line at conc. of 20 ug/mL; type: functional, U-87MG ATCC; settings: Homo sapiens
U-87 MG [16] = assay: Cytotoxic activity of compound against U-87-MG tumor cell line.; type: functional, U-87MG ATCC; settings: Homo sapiens, read-out: ED50 (the source's name)
[17] = Cytotoxic activity of compound against KB cell lines.; type: functional; settings: Homo sapiens, read-out: ED50 (the source's name)
[18] = Cytotoxic activity of compound was evaluated against KB cell line.; type: functional; settings: Homo sapiens, read-out: ED50 (the source's name)
[19] = Cytotoxic activity of compound was evaluated against drug resistant subline KB-7d cells; type: functional; settings: Homo sapiens; read-out: ED50 (the source's name)
[20] = Cytotoxic activity of compound was evaluated against KB cell line at conc. of 20 ug/mL; type: functional; settings: Homo sapiens
KB = assay: Cytotoxic activity of compound was evaluated against KB cell line; NA denotes not active at conc. of 20 ug/mL.; type: functional, cell-based; settings: Homo sapiens
KB 3-1 [21] = assay: Cytotoxic activity of compound was evaluated against drug resistant subline KB-7d cells at conc. of 20 ug/mL; type: functional; settings: Homo sapiens
HCT-8 [22] = assay: Cytotoxic activity of compound against HCT-8 tumor cell line.; type: functional; settings: Homo sapiens, read-out: ED50 (the source's name)
KB 3-1 [23] = assay: Cytotoxic activity of compound was evaluated against KB-VIN cells at conc. of 20 ug/mL; type: functional; settings: Homo sapiens, KBVIN

| Structure (SMILES) | EC50 (KB 3-1 [9]) | EC50 [18] | EC50 [19] | also measured |
| --- | --- | --- | --- | --- |
| COc1ccc(-c2cc(=O)c3c(O)cc(O)c(-c4cc(OC)ccc4-c4cc(=O)c5c(O)cc(OC)cc5o4)c3o2)cc1 | > 20 µg/mL | – | – | EC50 (A549 [1]): > 20 µg/mL; inhibition at 20 µg/mL (A549 [2]): 58%; inhibition (HCT-8 [3]): inactive; EC50 (HOS [4]): > 20 µg/mL; inhibition at 20 µg/mL (HOS [5]): 25%; EC50 [6]: > 20 µg/mL; inhibition at 20 µg/mL [7]: 44%; inhibition at 20 µg/mL [8]: 12%; inhibition at 20 µg/mL (KB 3-1 [10]): 9%; EC50 (MCF7 [11]): > 20 µg/mL; inhibition at 20 µg/mL (MCF7 [12]): 22%; EC50 (SK-MEL-2 [13]): > 20 µg/mL; inhibition at 20 µg/mL (SK-MEL-2 [14]): 9%; inhibition at 20 µg/mL (U-87 MG [15]): 17%; EC50 (U-87 MG [16]): > 20 µg/mL; EC50 [17]: > 20 µg/mL |
| C=C1[C@@H](OC(=O)/C=C/c2ccccc2)C[C@H](OC(C)=O)[C@@]2(C)[C@@H](OC(C)=O)[C@H](OC(C)=O)C3=C(C)[C@@H](OC(C)=O)C[C@@H]([C@@H](OC(C)=O)[C@H]12)C3(C)C | 16.2 µg/mL (≈ 22.9 µM) | 16 µg/mL (≈ 22.6 µM) | 14.2 µg/mL (≈ 20 µM) | – |
| C=C1[C@@H](OC(=O)/C=C/c2ccccc2)CC[C@@]2(C)[C@@H](OC(C)=O)[C@H](OC(C)=O)C3=C(C)[C@@H](OC(C)=O)C[C@@H]([C@@H](O)[C@H]12)C3(C)C | 11 µg/mL (≈ 18.1 µM) | 12.5 µg/mL (≈ 20.5 µM) | 9.4 µg/mL (≈ 15.4 µM) | – |
| C=C1[C@@H](OC(=O)/C=C/c2ccccc2)C[C@H](OC(C)=O)[C@@]2(C)[C@@H](OC(C)=O)[C@H](OC(C)=O)C3=C(C)C(=O)C[C@@H]([C@@H](OC(C)=O)[C@H]12)C3(C)C | 3.6 µg/mL (≈ 5.42 µM) | 3.9 µg/mL (≈ 5.87 µM) | 4.1 µg/mL (≈ 6.17 µM) | – |
| C=C1[C@@H](OC(=O)/C=C/c2ccccc2)CC[C@@]2(C)[C@@H](O)[C@H](OC(C)=O)[C@@]34[C@H](C)C(=O)C[C@@H]([C@@H](OC(C)=O)C132)C4(C)C (some centres undefined) | 6.4 µg/mL (≈ 11.3 µM) | 7.7 µg/mL (≈ 13.6 µM) | 6.1 µg/mL (≈ 10.8 µM) | – |
| C=C1[C@@H](OC(=O)/C=C/c2ccccc2)C[C@H](OC(C)=O)[C@@]2(CCOC(C)=O)[C@@H](OC(C)=O)[C@H](OC(C)=O)[C@]3(O)[C@@]4(C)CO[C@]3(C)C(=O)C[C@H]4[C@@H](OC(C)=O)[C@H]12 | 17 µg/mL (≈ 22.1 µM) | 6.2 µg/mL (≈ 8.06 µM) | 4.6 µg/mL (≈ 5.98 µM) | – |
| C=C1[C@@H](OC(=O)/C=C/c2ccccc2)C[C@H](OC(C)=O)[C@]2(C)[C@@H]1C[C@@H]1C[C@H](OC(C)=O)C(C)=C([C@@H](OC(C)=O)[C@@H]2OC(C)=O)C1(C)C | 2.4 µg/mL (≈ 3.69 µM) | 4.8 µg/mL (≈ 7.38 µM) | 3.5 µg/mL (≈ 5.38 µM) | – |
| CC(=O)OC/C1=C\[C@H](OC(C)=O)[C@]2(C)C[C@H](OC(C)=O)C(C)=C([C@@H](OC(C)=O)/C(OC(C)=O)=C(/C)[C@@H](OC(C)=O)C[C@@H]1OC(=O)/C=C/c1ccccc1)C2(C)C | 13.3 µg/mL (≈ 17 µM) | 16.6 µg/mL (≈ 21.3 µM) | 10 µg/mL (≈ 12.8 µM) | – |
| CC(=O)O[C@H]1CC[C@@]2(C)C[C@H](OC(C)=O)C3=C(C)CC(O)[C@@H]([C@@H](OC(C)=O)[C@@H]2C1)C3(C)C (some centres undefined) | 17.3 µg/mL (≈ 38.4 µM) | > 20 µg/mL | 9.6 µg/mL (≈ 21.3 µM) | inhibition at 20 µg/mL [20]: 45% |
| C=C1[C@@H](OC(C)=O)CC[C@@]2(C)C[C@H](OC(C)=O)C3=C(C)C[C@H](OC(=O)[C@@H](C)C(C)O)[C@@H]([C@@H](OC(C)=O)[C@H]12)C3(C)C (some centres undefined) | 8.6 µg/mL (≈ 15.3 µM) | 9.8 µg/mL (≈ 17.4 µM) | 4.3 µg/mL (≈ 7.64 µM) | – |
| CC(=O)O[C@H]1C(=O)[C@@]2(C)C/C(=C\[C@H](OC(C)=O)[C@@H]3C[C@H](OC(C)=O)C(C)=C1C3(C)C)[C@@H](OC(C)=O)C[C@@H]2OC(C)=O | > 20 µg/mL | – | > 20 µg/mL | ED50 (KB): inactive; inhibition at 20 µg/mL (KB 3-1 [21]): 22%; inhibition at 20 µg/mL (KB 3-1 [10]): 5% |
| COc1ccc(-c2cc(=O)c3c(O)cc(OC)cc3o2)c(-c2c(O)cc(O)c3c(=O)cc(-c4ccc(O)cc4)oc23)c1 | > 20 µg/mL | – | – | EC50 (A549 [1]): 5.5 µg/mL (≈ 9.71 µM); EC50 (HCT-8 [22]): 8.5 µg/mL (≈ 15 µM); EC50 (HOS [4]): 8 µg/mL (≈ 14.1 µM); EC50 [6]: 6 µg/mL (≈ 10.6 µM); inhibition at 20 µg/mL (KB 3-1 [10]): 21%; EC50 (MCF7 [11]): 7.5 µg/mL (≈ 13.2 µM); EC50 (SK-MEL-2 [13]): 7 µg/mL (≈ 12.4 µM); EC50 (U-87 MG [16]): 7 µg/mL (≈ 12.4 µM); EC50 [17]: 7.5 µg/mL (≈ 13.2 µM) |
| CC(=O)O[C@H]1C[C@H]2[C@@H](OC(C)=O)/C=C3\C[C@@](C)([C@@H](OC(C)=O)C[C@@H]3OC(C)=O)[C@@H](O)C(=O)C(=C1C)C2(C)C | > 21 µg/mL | > 20 µg/mL | > 28 µg/mL | inhibition at 20 µg/mL [20]: 10%; inhibition at 20 µg/mL (KB 3-1 [21]): 28%; inhibition at 20 µg/mL (KB 3-1 [23]): 21% |
| C=C1[C@@H](OC(=O)/C=C/c2ccccc2)CC[C@@]2(C)[C@@H](OC(C)=O)[C@H](OC(C)=O)[C@@]34[C@H](C)C(=O)C[C@@H]([C@@H](OC(C)=O)C132)C4(C)C (some centres undefined) | 8.7 µg/mL (≈ 14.3 µM) | 12.1 µg/mL (≈ 19.9 µM) | 7.8 µg/mL (≈ 12.9 µM) | – |
